In patent publication US9451763B2, “Disinfectant formulation” (Laboratoire M2, priority 2008, dated 2016):

System: Staphylococcus aureus (ATCC 6538)
Assay: Minimum concentration for total antimicrobial activity, AOAC method 955.15 (Phenol Coefficient Method) with minor modifications
Type: cell-based

Structure (SMILES) | antimicrobial activity (in words) | Minimal Concentration (minimum concentration for total antimicrobial activity, incorporated into composition F, contact time 10 minutes, turbidity after 72 hours at 37° C.) [v/v %]
Cc1ccc(C(C)C)cc1O [Carvacrol] | excellent antimicrobial activity | 0.07
Cc1ccc(C(C)C)c(O)c1 [Thymol] | excellent antimicrobial activity | –
